Where two headings read alike, the source gives them in different places.
Assays:
Pgk1 [1] = target: T1, Pgk1 (Homo sapiens, UniProt P00558); assay: Affinity for Pgk1 protein (Biacore T200 chip); assay type: binding; details: for Rmax: amount of drug bound to the target protein when the affinity was detected
T1 sequence (P00558 1-417): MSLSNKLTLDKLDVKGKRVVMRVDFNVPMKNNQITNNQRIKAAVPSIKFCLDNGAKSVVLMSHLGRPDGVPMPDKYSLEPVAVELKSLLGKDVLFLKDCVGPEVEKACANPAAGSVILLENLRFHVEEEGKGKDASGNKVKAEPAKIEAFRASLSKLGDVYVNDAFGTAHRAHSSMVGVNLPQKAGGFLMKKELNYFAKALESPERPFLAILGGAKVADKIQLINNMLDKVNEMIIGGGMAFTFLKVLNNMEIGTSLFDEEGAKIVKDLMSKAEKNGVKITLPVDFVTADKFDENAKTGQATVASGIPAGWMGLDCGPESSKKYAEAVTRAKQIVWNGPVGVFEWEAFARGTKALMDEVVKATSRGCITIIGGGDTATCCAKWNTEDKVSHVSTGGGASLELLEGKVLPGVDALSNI
Method: Purified Pgk1 protein (with a concentration of 1 mg/mL) was immobilized on a Biacore T200 chip. […] The obtained curves can calculate parameters such as affinity and Rmax.

[2] = tested on: MPTP-induced Parkinson's disease model mice; assay: Rotarod motor ability in MPTP-induced Parkinson's disease model; assay type: in vivo; details: day 7 after MPTP injection
Method: (§1) Male mice aged 3 months were used and fed normally. The acute MPTP modeling method (see Sonsalla PK, Heikkila RE. The influence of dose and dosing interval on MPTP-induced dopaminergic neurotoxicity in mice. Eur J Pharmacol 1986; 129(3): 339-45.) was employed. MPTP was injected intraperitoneally four times in total at a dose of 20 mg/kg body weight per injection, with a 2-hour interval between each injection. MPTP was dissolved in normal saline, and the control group received an equal dose of normal saline. T2 was dissolved in DMSO and diluted with normal saline to the desired concentration. Accordingly, equal doses of DMSO and normal saline were administered during the treatment. On the day of MPTP model establishment, mice were administered either T2 (treatment group) or DMSO (control group). Subsequently, mice in all groups were administered the corresponding drugs daily. Mouse behavior was tested using a rotarod (E103, UGO BASILE). First, mice were pre-trained for two consecutive days at a constant speed of 15 revolutions per minute (15 rpm) until they could stay on the rod for more than 60 seconds. […] The latency to fall from the rotarod was recorded, and the behavior was monitored by a camera. […] Therefore, whether dopaminergic neurons were damaged can be determined by Western blot assay using an anti-TH antibody.

[3] = tested on: Tyrosine hydroxylase (TH); assay: Striatal tyrosine hydroxylase Western blot in MPTP-induced Parkinson's disease model; assay type: in vivo, mice; details: 0.1 mg/Kg, striatal tissue
Method: as §1

db/db mice [4] = assay: Long-term hypoglycemic and weight-loss effects in diabetic model mice, drinking water; assay type: in vivo; details: 7 days, T6 1.5 mg/kg
Method: After 7 days of treatment, changes in glycated hemoglobin (HbA1c) level, insulin level in mouse blood, and body weight, were measured.

SK-N-SH cells = assay: Cellular ATP levels (Promega ATP assay kit); assay type: cell-based, human; details: for cell growth: 50 µM; for optimal dose (cellular ATP levels): doses of 5 µM, 10 µM and 50 µM; for optimal dose (cellular ATP levels) / activity in increasing cellular ATP: 48 hours; for activity in increasing cellular ATP: SK-N-SH cells, 10 µM, 5% O2, untreated control defined as 1 (FIG. 1)
Method: Human Neuroblastoma Cell Line (SK-N-SH) is a human-derived neuroblastoma cell line. SK-N-SH cells were seeded in a 6-well plate at a density of 6×10^4 cells per well. The cells were cultured for 12 hours under 5% O2. Various drugs at a concentration of 10 µM were added. After 48 hours, the cells were harvested. Celluar ATP levels were measured using the Promega ATP assay kit. The experiment was repeated 6 times to 10 times. The experimental results were illustrated in FIG. 1. […] T1 to T11 were the experimental groups.
SK-N-SH cells were seeded in a 6-well plate at a density of 6×10^4 per well. Cells were cultured for 12 hours under 5% O2, and the drug was added. Cells were harvested after 48 hours. Cellular ATP levels were measured using a Promega ATP assay kit. The experiment was repeated 5 times to 7 times.

Pgk1 [5] = target: T1, Pgk1; assay: In vitro biochemical Pgk1 enzymatic activity (NADH production, absorbance 339 nm); set-up: made in house; host or cells: E. coli BL21(DE3); details: for optimal concentration for activating Pgk1: purified Pgk1-His 2 µg/mL, 10 minutes at room temperature
Method: Human Pgk1 cDNA was cloned into the pEASYTM-E2 vector (TransGen Biotech) containing a His tag. Protein expression was induced in BL21(DE3) chemocompetent cells (TransGen Biotech) with 0.5 mM IPTG. After lysing cells in extraction buffer (20 mM sodium phosphate, 500 mM NaCl, 5 mM imidazole, 5% glycerol, protease inhibitor cocktail, pH 7.9), the supernatant was purified with nickel beads (AdarBiotech). The His-tagged Pgk1 was eluted with the elution buffer (20 mM sodium phosphate, 500 mM NaCl, 80 mM imidazole, protease inhibitor cocktail, pH 7.9). The activity of Pgk1 can be measured by monitoring the rate of NADH production, as NADH accumulated as the reaction proceeded. Purified Pgkl-His protein (2 µg/mL) was added to the reaction buffer (20 mM Tris, 100 mM NaCl, 2 mM DTT, 0.1 mM MgSO4, 10 mM NaHPO4, pH 8.6), and the substrates (1.6 mM GAP, 1 mM β-NAD, 1 mM ADP, 20 ng/µL GAPDH) was added. […] After reaction for 10 minutes at room temperature, the absorbance wavelength at 339 nm was measured using a microplate reader (Molecular Devices, SpectraMax i3x), and this wavelength corresponds to NADH levels.

[6] = tested on: stable Pgk1-knockdown SK-N-SH cell line; assay: Mitochondrial respiration (Seahorse) in Pgk1-knockdown cells; assay type: cell-based, human; details: 10 µM, shPgk1 knockdown cells
Method: Cellular mitochondrial stress was detected using a Seahorse XFe analyzer (XFe-24, Seahorse Bioscience, Billerica, MA, UAS) to measure the oxygen consumption rate (OCR). SH-SKN cell lines were seeded in a 24-well plate compatible with the Seahorse XFe analyzer. After 24 hours, cells were treated with DMSO (0.01%) or various drugs (10 µM). Cellular mitochondrial stress was detected 12 hours after drug treatment. For the mitochondrial stress test, 97.2 mL of Seahorse basal medium (Seahorse Bioscience, Billerica, MA, UAS) was taken and heated in a water bath to 37°C, and 1 mL of a stock solution was added. The stock solution was prepared by mixing the following solutions: 1 mL of 200 mM L-glutamine solution (Sigma), 1 mL of 100 mM pyruvate solution (Sigma), and 800 µL of 2.5 M glucose solution, and the pH of the stock solution was adjusted to 7.4 with 1 M NaOH solution. Before detection, the probe plate was taken out, and 1 mL of XF Carlibrant solution (Seahorse Bioscience) was added to the probe plate. The plate was then incubated overnight in a CO2-free constant temperature incubator at 37°C. After drug treatment, the cells were removed and washed twice with preheated Seahorse basal medium at 37°C, ensuring that 500 µL of Seahorse basal medium remained in each well. The cells were incubated in a CO2-free constant temperature incubator at 37°C for 1 hour. […]

db/db mice [7] = assay: Hypoglycemic effect in diabetic model mice, intraperitoneal injection; assay type: in vivo; details: 4 hours later
Method: Gene knockout db/db mice are a classic model of hyperglycemia and obesity. Under normal feeding conditions, mice aged 3 months or older developed hyperglycemia and obesity. After the mice were provided with only drinking water (fasted) for 6 hours, blood was collected from the tail of the mice to measure blood glucose values. Subsequently, different drugs, including saline (control), liraglutide at 0.6 mg/Kg, low-concentration T6 (T6 low, 0.1 mg/Kg), and high-concentration T6 (T6 high, 0.5 mg/Kg), were injected intraperitoneally. 4 hours later, blood was collected from the tail of the mice to measure the blood glucose levels. Each group consisted of 6 mice. Blood glucose levels before administration (Vbefore) and after administration (Vafter) were obtained for each mouse. The effect of the drug on blood glucose (%) was calculated as follows: (Vbefore−Vafter) × 100/Vbefore . [formula]

Pgk1 [8] = target: T1, Pgk1; details: cited from earlier work
α1 adrenergic receptor = details: cited from earlier work
Wild-type mice (C57BL/6) = assay: Blood glucose in normal mice in vivo; details: 0.1 mg/kg intraperitoneally, fasted 6 hours after administration
Method: Wild-type mice (C57BL/6) aged 3 months to 4 months under normal feeding conditions were intraperitoneally injected with different drugs at 0.1 mg/kg. Mice injected with normal saline served as the control group. Mice were fasted for 6 hours after administration. Blood was collected from the tail of each mouse to measure blood glucose levels. Each group consisted of 9 mice.

[9] = Pgk1 immobilized on Biacore T200 chip, read-out: Affinity

**Q.** Which results are given for `Nc1ncnc2c1ncn2[C@@H]1O[C@H](COP(=O)(O)OP(=O)(O)O)[C@@H](O)[C@H]1O` [ADP, reference compound]?
**A.** Rmax (Pgk1 [1]): 35 RU; Kd (Pgk1 [1]; unit inferred, read-out: KD value): 337 µM

**Q.** With `Nc1nc(N2CCN(C(=O)[C@H]3CCCO3)CC2)cc2cc3c(cc12)OCO3` [Compound T1] as the compound, how does the Kd (Pgk1 [1]; [9]) read?
**A.** 496 µM

**Q.** Which results are given for `Nc1nc(N2CCN(C(=O)[C@@H]3CCCO3)CC2)cc2cc3c(cc12)OCO3` [Compound T2]?
**A.** Kd (Pgk1 [1]; [9]): 449 µM; motor ability (rotarod) ([2]; three doses 0.1 mg/Kg, 0.3 mg/Kg and 1 mg/Kg daily): exerted protective effects; tyrosine hydroxylase protein levels / effect on dopaminergic neurons [3]: protective effect on dopaminergic neurons

**Q.** Which results are given for `CC1Oc2cc3cc(N4CCN(C(=O)[C@H]5CCCO5)CC4)nc(N)c3cc2O1` (some centres unmarked) [Compound T3]?
**A.** Kd (Pgk1 [1]; [9]): 684 µM; Rmax (Pgk1 [1]): 93 RU

**Q.** For `CC1(C)Oc2cc3cc(N4CCN(C(=O)[C@H]5CCCO5)CC4)nc(N)c3cc2O1` [Compound T4], which Kd (Pgk1 [1]; [9]) is on record?
**A.** 725 µM

**Q.** And the Rmax (Pgk1 [1])?
**A.** 75 RU

**Q.** With `Nc1nc(N2CCN(C(=O)[C@H]3CCCO3)CC2)cc2cc3c(cc12)CCO3` [Compound T5] as the compound, how does the Kd (Pgk1 [1]; [9]) read?
**A.** 273 µM

**Q.** And the Rmax (Pgk1 [1])?
**A.** 86 RU

**Q.** Which results are given for `Nc1nc(N2CCN(C(=O)[C@H]3CCCO3)CC2)cc2cc3c(cc12)OCC3` [Compound T6]?
**A.** body weight (db/db mice [4]): significant decrease in body weight; glycated hemoglobin (HbA1c) level (db/db mice [4]; terazosin 0.3 mg/kg, metformin 350 mg/kg, versus control group): decrease; cell growth (SK-N-SH cells): tendency to inhibit cell growth; optimal dose (cellular ATP levels) (SK-N-SH cells): 50 µM; inhibition of Pgk1 enzymatic activity (Pgk1 [5]; all different concentrations tested): none of the concentrations can inhibit Pgk1; optimal concentration for activating Pgk1 (Pgk1 [5]): 0.1 µM; Kd (Pgk1 [1]; [9]): 375 µM; basal respiratory rate [6]: absent; maximum respiratory rate [6]: absent; hypoglycemic effect (blood glucose) (db/db mice [7]; high concentration 0.5 mg/kg intraperitoneally): significant hypoglycemic effects; hypoglycemic effect (blood glucose) (db/db mice [7]; low concentration 0.1 mg/kg intraperitoneally): significant hypoglycemic effects

**Q.** Which Kd (Pgk1 [1]; [9]) does the source give for `Nc1nc(N2CCN(C(=O)C3CCCC3)CC2)cc2cc3c(cc12)OCO3` [Compound T7] here?
**A.** 878 µM

**Q.** Which results are given for `Nc1nc(N2CCN(C(=O)[C@H]3CCCN3)CC2)cc2cc3c(cc12)OCO3` [Compound T8]?
**A.** Kd (Pgk1 [1]; [9]): 473 µM; Rmax (Pgk1 [1]): 87 RU

**Q.** With `Nc1nc(N2CCN(C(=O)[C@@H]3CCCN3)CC2)cc2cc3c(cc12)OCO3` [Compound T9] as the compound, how does the Kd (Pgk1 [1]; [9]) read?
**A.** 811 µM

**Q.** What about the Rmax (Pgk1 [1]) of the same compound?
**A.** 87 RU

**Q.** What does the source list for `Nc1nc(N2CCN(C(=O)[C@H]3CCCO3)CC2)cc2cc3c(cc12)OCCO3` [Compound T10]?
**A.** activity in increasing cellular ATP (SK-N-SH cells): no such activity of increasing cellular ATP; Kd (Pgk1 [1]; [9]): > 1000 µM; Rmax (Pgk1 [1]): None

**Q.** Which “activity in increasing cellular ATP” value (SK-N-SH cells) does the source give for `Nc1nc(N2CCN(C(=O)c3ccco3)CC2)cc2cc3c(cc12)OCO3` [Compound T11] here?
**A.** no such activity of increasing cellular ATP

**Q.** What about the Kd (Pgk1 [1]; [9]) of the same compound?
**A.** > 1000 µM

**Q.** And the Rmax (Pgk1 [1])?
**A.** None

**Q.** Which “effect of activating Pgk1” value (Pgk1 [8]) does the source give for `COc1cc2cc(N3CCN(C(=O)C4CCCO4)CC3)nc(N)c2cc1OC` (centres unmarked) [TZ-md] here?
**A.** still retains the effect of activating Pgk1

**Q.** And the “inhibition of the α1 adrenergic receptor” value (α1 adrenergic receptor)?
**A.** does not inhibit the α1 adrenergic receptor

**Q.** With `COc1cc2nc(N3CCN(C(=O)C4CCCO4)CC3)nc(N)c2cc1OC` (centres unmarked) [Terazosin, terazosin, reference compound] as the compound, how does the cell growth (SK-N-SH cells) read?
**A.** tendency to inhibit cell growth

**Q.** What about the “optimal dose (cellular ATP levels)” value (SK-N-SH cells) of the same compound?
**A.** 10 µM

**Q.** What about the “inhibition of Pgk1 enzymatic activity” value (Pgk1 [5]; high concentration, 100 µM) of the same compound?
**A.** can inhibit Pgk1 enzymatic activity

**Q.** What about the “optimal concentration for activating Pgk1” value (Pgk1 [5]) of the same compound?
**A.** 1 µM

**Q.** What about the “motor ability (rotarod)” value ([2]; 0.1 mg/Kg daily) of the same compound?
**A.** improved the motor ability

**Q.** What about the “tyrosine hydroxylase protein levels / effect on dopaminergic neurons” value [3] of the same compound?
**A.** protective effect on dopaminergic neurons

**Q.** What about the “hypoglycemic effect (blood glucose)” value (Wild-type mice (C57BL/6)) of the same compound?
**A.** did not exhibit a hypoglycemic effect

**Q.** For liraglutide, which “hypoglycemic effect (blood glucose)” value (db/db mice [7]; 0.6 mg/Kg intraperitoneally) is on record?
**A.** optimal hypoglycemic effect

Reference: patent EP4810497A1, “ISOQUINOLINE DERIVATIVE, SYNTHESIS METHOD THEREFOR, AND USE THEREOF” (Harbin Gloria Pharmaceuticals Co., Ltd., priority 2023, dated 2025)
